The subject of series [1] is 3rd instar Ae. albopictus. As to the kind of experiment: Venereal transfer from contaminated males to females, larval bioassay. Type of series: in vivo, Aedes albopictus. To be noted: venereally acquired pyriproxyfen transferred to water-holding containers. The procedure: This experiment determined whether contaminated mosquitoes could transfer pyriproxyfen to uncontaminated individuals via mating behaviors. To ensure virginity, pupae were individually transferred to 50 ml centrifuge tubes until emergence, and then caged by gender before testing 5-7 days post-emergence. Adult males were exposed to pyriproxyfen-treated filter paper (8×10 cm Whatman No. 1) lining a 50 ml test tube. The paper was coated with 1.5 ml of corn oil as a sticker, blotted to remove excess oil, and then dusted with our pyriproxyfen powder formulation at 0.26 mg/cm of a.i. After ten minutes of exposure, males were transferred from the tube by aspirator to mating containers (450 ml capacity, 7.5 cm depth) covered with mosquito-proof mesh, and allowed to mate with uncontaminated females in pairs. […]
(§1) All insecticidal activity tests were conducted in adult emergence units—450 ml plastic containers with a screen-covered lid and 200 ml of water (water lost via evaporation was replaced before assay). […] At 2-day intervals, ground rat chow (30 mg/L) was provided as food, water lost due to evaporation was replenished, dead and emerged individuals were removed, and successful adult emergence was recorded. Incomplete emergence or adults with attached exuviae were recorded as dead.

Series [2] deals with Ae. albopictus. As to the kind of experiment: Attachment and persistence of IGR formulations assay, biphasic ADS (residue analysis and larval bioassay). Type of series: in vivo, Aedes albopictus. From the text:
A biphasic autodissemination station (ADS) was developed to enhance attraction and contamination of gravid mosquitoes based on the previous version as described in the prior examples with modifications on the transfer chamber, which provided the attracted gravid mosquitoes a unidirectional path and biphasic formulations. The ADS consists of two main parts comprising of a water reservoir at the bottom (adapted from previous version), above which was a transfer chamber with a unidirectional cone inserted in the transfer chamber (FIGS. 12, A & B). The reservoir could hold 600 mL water, which contains dried shredded oak leaves and other materials producing attractants to the gravid mosquitoes. There were overflow protection holes located in the upper part of the reservoir as described in the previous examples. The transfer chamber was constructed with a cardboard mailing tube (101.5×155 mm; Office Depot, N.J. USA), a cotton mesh fabric (39 openings/cm^2) secured within the chamber base by hot glue, a vertical fabric band [43] (20 mm width) glued on top portion inside the transfer chamber and a horizontal flat ring (20 mm width) mounted on the top of the chamber (FIG. 12, B) to provide the base for powder band [46]. […] The spacer size was determined by preliminary study in which the gap size allowed maximum contamination of mosquitoes and minimum number of mosquitoes trapped. […]

Series [3] deals with Ae. albopictus. As to the kind of experiment: Green house assay, biphasic ADS. Type of series: in vivo, Aedes albopictus. How it is done:
(§2) Larval bioassays for pyriproxyfen were conducted in adult emergence units (450 ml plastic Deli containers lid on) under the standard laboratory conditions as described above under the heading, Mosquito colony and maintenance. Each container received twenty early 3rd instar Ae. albopictus in 200 ml sample water. Larvae were inoculated gently using dropper before placing the lid on. Five slots (4 cm each) were cut into the lid with a clean blade for aeration. Larval food (30 mg yeast/L) was provided twice a week which was freshly prepared every time. An additional lab control group was setup in triplicate using […] water. The bioassays were conducted in the sequence of lab control and treatment to minimize the chance of contamination. Water lost due to the evaporation during bioassay was replenished. Adult emergence and pupal mortality were accessed after there was no live lava or pupa in the water. Incomplete emergence or adult with attached exuvia was recorded as pupal death. If lab control had mortality higher than 20% in larval or pupal stages, results were discarded and the experiment was repeated. The experiments were conducted under environmental conditions of 26-28° C., 60-75% RH and LD 16:8 h.
Green house with 2 bays (8×5×2.5 m each) was used for the semi-field assay. One ADS was positioned in the center of each bay and 6 Deli cups (450 mL, black painted from outside) containing 250 mL water each were setup as shown in FIG. 5 and 10% sugar solution was provided in a plastic cup with cotton wick. In each bay, 100 gravid mosquitoes (2 days post blood feeding) were released after the setup of ADS and oviposition containers. The containers were collected and sent for lab bioassay as described above after the 5 day experiment. […] The temperature of 22-30° C. and relative humidity of 45-70% were recorded during the experiment. […]
Efficacy of pyriproxyfen was expressed as mean + standard error % of pupal mortality, which was corrected with control using Abbott's formula (Abbott W. S. (1925) J Econ Entomol; 18: 265-267). […]

Another series has as its system Aedes aegypti. Conditions: cited from earlier work.
Series [4] relates to 3rd instar Ae. albopictus. Nature of the series: Room trial (31.1 m^3), single-phase station, larval bioassay. It is filed as in vivo, Aedes albopictus. How it is done:
In the room trial, the test arena was scaled-up to a larger area with dimensions of 2.1 (W)×2.6 (H)×5.7 (L) m (31.1 m^3). A station was placed in the center of the room and ovicups with oak infusion and ovistrips were positioned at each corner 30 cm from the walls. Fifty gravid females were introduced for a five day test. The ovistrips and eggs were discarded and the water from each container was tested for insecticidal activity by larval bioassay, with four additional untreated cups as controls. Environmental conditions of 26-28° C., 60-75% RH, and 16L:8D photoperiod. Inhibition of emergence in the cage and room trials was analyzed against their respective controls with a t-test (P≤0.05).
All insecticidal activity tests were conducted in adult emergence units—450 ml plastic containers with a screen-covered lid and 200 ml of water (water lost via evaporation was replaced before assay). Each container held twenty 3rd instar Ae. albopictus. Test containers were incubated at 26° C. and 16L:8D photoperiod. At 2-day intervals, ground rat chow (30 mg/L) was provided as food, water lost due to evaporation was replenished, dead and emerged individuals were removed, and successful adult emergence was recorded. Incomplete emergence or adults with attached exuviae were recorded as dead.

Series [5] relates to Ae. albopictus. Conditions: reported as low as; Gaugler 2012, Sihuincha 2005; cited from earlier work.
The subject of another series is container mosquitoes. To be noted: modified sticky trap dusted with manually grained 5% pyriproxyfen powder; cited from earlier work.
Series [6] concerns Ae. albopictus. Nature of the series: Room assay (31 m^3), biphasic dual treatment ADS. It is filed as in vivo, Aedes albopictus. The procedure:
as §2
The test area was scaled up to a larger room (31 m^3) measuring 2.1 m in width, 5.7 m in length and 2.6 m in height. A station was placed in the center of the room and 10 Deli cups (450 mL, black painted from outside) containing 250 ml water were positioned 30 cm from the walls along each side of the room. Fifty gravid females were introduced for a 5-day test. The experiment was conducted under environmental conditions of 26-28° C., 60-75% RH and LD 16:8 h. The cups then were tested for pyriproxyfen activity using larval bioassay as described above. Ten additional untreated cups were included as controls. The pupal mortality in the room trials was analyzed against their respective controls with a t-test (P≤0.05).

Another series has as its system Ae. aegypti adults. To be noted: pyriproxyfen dusted plastic containers, public cemetery; cited from earlier work.
For series [7], the system named is Ae. albopictus. As to the kind of experiment: Larvicidal LC50 of pyriproxyfen. To be noted: unpublished data.
The test system of the next series is gravid female. As to the kind of experiment: Serial transfer study, biphasic ADS. It is filed as in vivo. Conditions: right after it exited the ADS.
Series [8] concerns 3rd instar Ae. albopictus. Nature of the series: Cage experiment: transfer from females to larval habitat, larval bioassay. Type of series: in vivo, Aedes albopictus. To be noted: 2.2 m^3 cage, 50 gravid females, 5 days, all 36 ovicups; powder formulation on transfer mesh. The procedure:
In the cage experiment, an autodissemination station equipped with a pyriproxyfen-treated transfer mesh and 450 ml of oak leaf infusion water was centered in a cubic 2.2 m^3 cage. A 360 ml capacity plastic cup was placed in each cage corner 15 cm from the walls. Each of the four cups was filled with 200 ml tap water and oviposition paper strips aligned as described above. Controls used a station with an untreated transfer mesh. Fifty gravid females were then introduced into the cage. After five days, the test was terminated, oviposition papers and eggs discarded, and containers were removed and the water assessed for pyriproxyfen transfer by larval bioassay (see ‘insecticide bioassays’ below). There were three treatment and one control cage per experiment and the experiment was repeated three times, providing a total of 36 test and 12 control ovicups for bioassay. […]
as §1

A further series deals with gravid mosquitoes. Nature of the series: Field studies, biphasic ADS. Type of series: in vivo.

Values joined by “and” are separate entries in the source; they are usually repeats but may differ in a detail not shown here. Identical values can stand only once. Like-named read-outs stand apart in the source and are kept apart here.

The compound `CC(COc1ccc(Oc2ccccc2)cc1)Oc1ccccn1` (stereo not drawn) [pyriproxyfen, 2-[1-methyl-2-(4-phenoxyphenoxy)ethoxy] pyridine] showed an inhibition of emergence in [1] of 48.33±5.87%. Further, the pupal mortality with Ae. albopictus [2] (24 h post exposure) is 96+1.7% and 96.7%; in series [4] (31 m^3 room, previous (uniphase) station, 4 oviposition containers with 200 ml water) it was 81%; in the series with gravid mosquitoes (field study, container with 250 ml water at 200 m), 100%. Also, the emergence inhibition in the series with Ae. albopictus [2] (up to 8 h post exposure, one mosquito per 250 mL water) is 100%; with Ae. aegypti adults it was 42-98%. For the same compound, the average pupal mortality in the series with Ae. albopictus [3] (6 containers per bay (100 m^3), 100 gravid females, 5 days) is 57.1+11.4% and 57.1%. Further, the “containers to which pyriproxyfen was transferred (contamination rate)” value with Ae. albopictus [3] (12 containers tested) was 91.7% and 91.6%. Moreover, the “pupal mortality of the cups with low mortality” value in the series on Ae. albopictus [3] (cups in area with human disturbance, low RH, less shade) was 0-30% and 10-30%. The LC50 is on record as 0.023 ppb with Aedes aegypti (Aedes aegypti L.); 0.012 ppb in the series with Aedes aegypti (reported as low as, Gaugler 2012, Sihuincha 2005); 0.012 ppb with Ae. albopictus [5]; 0.012 ppb in the series on Ae. albopictus [7]. Moreover, the “activity relative to temephos” value in the series with Aedes aegypti (times the activity of temephos) is on record as 200 ×. In [4] (31.1 m^3 room), the “smallest reduction in adult emergence among ovicups” value is on record as 75%. In addition, the “inhibition of adult emergence” value in series [4] (31.1 m^3 room, 50 gravid females, 5 days, 4 ovicups, powder formulation) is 81.25%±2.39; in series [8], 100%. In addition, the mortality in the series on container mosquitoes is 40-70%. The “emergence inhibition in each cup” value in the series with Ae. albopictus [6] (31 m^3 room, 50 gravid females, 10 oviposition cups) came to 100%. Moreover, the “pupal mortality in each of the 10 oviposition cups” value was 100% with Ae. albopictus [6] (31.1 m^3 room, 50 gravid mosquitoes, 5 days); 100% in the series on Ae. albopictus [6] (second prototype (oil and powder bands on one plate)). The “containers contaminated with 100% mortality by one gravid female” value in the series with gravid female was “at least 3 containers”. Further, the containers contaminated result in the series on gravid mosquitoes (different field study, 2012, variable pupal mortality) is on record as “more than 60%”. The “distance of pyriproxyfen transfer” value in the series on gravid mosquitoes (field study) came to 200 m.

(Values after patent US10258027B2, “Autodissemination of an insect-growth regulator for insect management” (Rutgers, The State University of New Jersey, priority 2010, dated 2019).)
